Entries after “also recorded” stand apart in the source; their conditions may differ.
Tests used:
Type in all cases: cell-based, mouse
[1] = test system: SLFN4; experiment: qRT-PCR in Lin- BM cells cultured 2 days; settings: bone marrow cells cultured with BRQ, normalized to vehicle
Method: (§1) FIG. 2. […] (A) MDSCs were produced in vitro from mouse bone marrow cells using GM-CSF and G-CSF±BRQ (1 μM) or ATRA (10 μM) at the start of the 4-day culture. Cells tested for their ability to inhibit T cell proliferation (1:1 ratio), as in FIG. 5. Fresh BM=Uncultured bone marrow cells. (B) Similar to A, except that uridine (200 μM) was added to rescue the effect of BRQ. (C) Expression of IRF8 (upper) or SLFN4 (lower) was analyzed by qRT-PCR in Lin^− BM cells cultured as in A for 2 days. Data normalized to the vehicle.

[2] = test system: IRF8; experiment: qRT-PCR in Lin- BM cells cultured 2 days; settings: bone marrow cells cultured with BRQ, normalized to vehicle
Method: as §1

[3] = test system: MDSCs; experiment: MDSC suppression assay: inhibition of T cell proliferation by in vitro generated MDSCs
Method: as §1
In Vitro Development of MDSCs. Unfractionated mouse bone marrow cells were cultured in dishes with recombinant mouse G-CSF and recombinant mouse GM-CSF (40 ng/ml of each cytokine) for 96 hours to produce MDSCs, as described (Marigo et al. Immunity 32:790-802, 2010). After culture, cells were collected and analyzed by flow cytometry for the indicated cell surface markers. Uncultured or fresh bone marrow (BM) cells served as a negative control.
Cultured Cells Develop Potent Immunosuppressive Capacity. Using the methods described for FIG. 4, experiments were then performed to determine whether the cells generated from this BM culture system functionally behaved as MDSCs, based on their ability to inhibit T cell proliferation in vitro. To that end, fresh BM (i.e., no in vitro culture) or cultured BM cells (i.e., MDSCs at two different MDSC-to-T cell ratios of 1:1 or 1:2) were co-mixed in 96-well plates with CellTrace Violet (CTV)—stained syngeneic naïve splenocytes as a source of T cells and stimulated with or without soluble agonistic anti-CD3 monoclonal antibody (mAb) (1 μg/ml) for 72 hours. After co-culture, CTV dye dilution in the gated CD4^+ or CD8^+ T cell fractions within the splenocyte populations was analyzed by flow cytometry to determine the extent of proliferation based on dye dilution. In FIG. 5, top panels show CTV dye dilution, as determined by flow cytometry and depicted as a histogram; bottom panels indicate the percentage of proliferation, based on quantification of the histogram data. […]

## Cc1c(-c2ccc(-c3ccccc3F)cc2)nc2ccc(F)cc2c1C(=O)O [BRQ, 6-Fluoro-2-(2′-fluoro-[1,1′-biphenyl]-4-yl)-3-methylquinoline-4-carboxylic acid]
[1]
  SLFN4 expression: reciprocal decrease in SLFN4 expression
[2]
  IRF8 expression: increase in IRF8 expression
[3]; BRQ 1 μM at start of 4-day culture, MDSC:T cell 1:1
  ability of in vitro generated MDSCs to inhibit CD4+ or CD8+ T cell proliferation: inhibits MDSC-mediated immune suppression in vitro; also recorded: more effective than ATRA in limiting the formation of immune suppressive cells in vitro; also recorded: significantly reduced the ability of these in vitro-generated MDSCs to inhibit T cell proliferation; also recorded: mitigates MDSC suppressive activity; also recorded: significantly less suppressive to CD4^+ or CD8^+ T cell proliferation compared to cultures containing ATRA
[3]; BRQ 1 μM plus extracellular uridine 200 μM
  ability of in vitro generated MDSCs to inhibit T cell proliferation, uridine rescue: exogenously supplied uridine blocked the effect of BRQ; also recorded: the addition of uridine antagonized the effect of BRQ and restored MDSC suppressive activity

Reference: patent publication US12594271B2, “Combination therapy for cancer” (Health Research, Inc., priority 2019, dated 2026)
